Structures can show the parent of a compound that is named as a salt.
Assay: pH of saturated aqueous solution
Assay type: physicochemical
From the text: The pH of the composition can be controlled or adjusted by the proper selection of excipients. It should be borne in mind that amlodipine maleate is slightly acidic. […] An example of a pH-inert excipient is microcrystalline cellulose.

pH as a saturated aqueous solution: about 4.8
Compound: CCOC(=O)C1=C(COCCN)NC(C)=C(C(=O)OC)C1c1ccccc1Cl (stereo not shown) [amlodipine maleate]

— patent US20020176889A1 (priority 2000, published 2002)
